Data as given in ChEMBL document CHEMBL1133804, “Naphthalene derivatives: A new series of selective cyclooxygenase-2 inhibitors” (Bioorg Med Chem Lett, 2001).
Calls of active or inactive are those of the source. The calls are words filed in the database; no cut-off is given here.

How the values were obtained:
Rattus norvegicus [1] = experiment: Anti-inflammatory activity in vivo by carrageenan paw edema assay in rat at a dose of 30 mg/kg; format: functional
Rattus norvegicus [2] = experiment: Antiinflammatory activity in vivo by carrageenan paw edema assay in rat at a dose of 3 mg/kg; format: functional
[3] = molecular target: T1, Prostaglandin G/H synthase 1 (Rattus norvegicus, UniProt Q63921)
T1 sequence (Q63921 whole entry): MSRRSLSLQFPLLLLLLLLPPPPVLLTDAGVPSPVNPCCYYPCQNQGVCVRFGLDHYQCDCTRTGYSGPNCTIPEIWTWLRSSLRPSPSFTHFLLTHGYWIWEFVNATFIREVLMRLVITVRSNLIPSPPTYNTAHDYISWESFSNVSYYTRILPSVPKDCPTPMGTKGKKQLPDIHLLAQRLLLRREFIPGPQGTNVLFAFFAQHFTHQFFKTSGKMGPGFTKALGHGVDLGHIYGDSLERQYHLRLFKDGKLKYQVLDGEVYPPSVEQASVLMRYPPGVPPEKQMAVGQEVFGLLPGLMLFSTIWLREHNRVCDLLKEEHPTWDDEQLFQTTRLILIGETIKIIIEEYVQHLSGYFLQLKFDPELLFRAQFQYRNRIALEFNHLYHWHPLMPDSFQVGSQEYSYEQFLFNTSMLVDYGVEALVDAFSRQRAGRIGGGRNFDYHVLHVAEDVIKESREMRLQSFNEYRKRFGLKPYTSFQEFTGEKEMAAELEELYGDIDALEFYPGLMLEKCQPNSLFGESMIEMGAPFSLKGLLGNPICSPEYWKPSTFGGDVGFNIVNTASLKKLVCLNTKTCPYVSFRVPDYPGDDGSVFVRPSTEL
Description: In vitro inhibitory concentration against rat prostaglandin G/H synthase 1

Rattus norvegicus [4] = species on record: Rattus norvegicus; conditions: 30 mg/kg
Description: Antiinflammatory activity in vivo by carrageenan paw edema assay in rat at a dose of 30 mg/kg; NA is not active

Rattus norvegicus [5] = species on record: Rattus norvegicus; experiment: Dose producing ulceration in rats; format: functional
Rattus norvegicus [6] = experiment: Antiinflammatory activity in vivo by carrageenan paw edema assay in rat at a dose of 30 mg/kg; NA is inactive; format: functional, organism-based; design: dose 30 mg/kg
Rattus norvegicus [7] = experiment: Antiinflammatory activity in vivo by carrageenan paw edema assay in rat at a dose of 3 mg/kg; NA is inactive; format: functional, organism-based; design: dose 3 mg/kg
Rattus norvegicus [8] = experiment: Antiinflammatory activity in vivo by carrageenan paw edema assay in rat; NA is inactive; format: functional, organism-based
Rattus norvegicus [9] = experiment: Antiinflammatory activity in vivo by carrageenan paw edema assay in rat at a dose of 30 mg/kg: NA is inactive; format: functional, organism-based; design: dose 30 mg/kg
Rattus norvegicus [10] = experiment: Antiinflammatory activity in vivo by carrageenan paw edema assay in rat at a dose of 10 mg/kg; conditions: read-out: Inhibition

IC50 [3] [µM]	SMILES	inhibition in vivo at 30 mg/kg (Rattus norvegicus [1]) [%]	inhibition in vivo at 3 mg/kg (Rattus norvegicus [2]) [%]	also measured
8.8	COc1ccc(Cc2ccc(C(C)C(=O)O)c3cc(OC)ccc23)cc1 (stereo unspecified)	45	22	–
1.7	COc1ccc2c(Cc3ccc(F)cc3)ccc(C(C)C(=O)O)c2c1 (stereo unspecified)	53	–	–
4.1	COc1ccc2c(Cc3ccc(Cl)cc3)ccc(C(C)C(=O)O)c2c1 (stereo unspecified)	50	–	ED50 (Rattus norvegicus [5]): 40 mg/kg
> 100	COc1ccc2c(C(C)C(=O)O)ccc(Cc3ccc(F)cc3)c2c1 (stereo unspecified)	–	–	inhibition (Rattus norvegicus [6]): inactive
218	COc1ccc2c(Cc3ccc(C(C)=O)cc3)ccc(C(C)C(=O)O)c2c1 (stereo unspecified)	–	–	inhibition (Rattus norvegicus [7]): inactive; inhibition (Rattus norvegicus [6]): inactive
61	CCc1ccc2c(Cc3ccc(Cl)cc3)ccc(C(C)C(=O)O)c2c1 (stereo unspecified)	–	–	inhibition (Rattus norvegicus [8]): inactive
2.3	COc1ccc2c(Cc3ccccc3Cl)ccc(C(C)C(=O)O)c2c1 (stereo unspecified)	13	5	–
7.3	CCC(C(=O)O)c1ccc(Cc2ccc(F)cc2)c2ccc(OC)cc12 (stereo unspecified)	–	–	inhibition (Rattus norvegicus [9]): inactive
> 100	COc1ccc2c(Cc3ccc(Cl)cc3)cc(CC(=O)O)cc2c1	–	–	inhibition (Rattus norvegicus [6]): inactive
40.8	COc1ccc2c(Cc3ccc(C(C)(C)C)cc3)ccc(C(C)C(=O)O)c2c1 (stereo unspecified)	32	–	inhibition (Rattus norvegicus [7]): inactive
> 100	CC(C(=O)O)c1ccc(Cc2ccc(Cl)cc2)c2ccc(Cl)cc12 (stereo unspecified)	–	–	inhibition (Rattus norvegicus [4]): inactive
> 100	COc1ccc2c(Cc3ccc(Cl)cc3)cccc2c1	–	–	inhibition (Rattus norvegicus [6]): inactive
2.4	CC(C(=O)O)c1ccc(Cc2ccc(F)cc2)c2ccccc12 (stereo unspecified)	16	–	–
> 100	COc1ccc2c(Cc3ccc(Cl)cc3)ccc(CC(=O)O)c2c1	52	–	–
1.5	COc1ccc2c(Cc3ccccc3)ccc(C(C)C(=O)O)c2c1 (stereo unspecified)	58	30	–

Further lines, the compound ahead of its results:

SMILES	IC50 [3] [µM]	inhibition in vivo at 30 mg/kg (Rattus norvegicus [1]) [%]	inhibition in vivo at 3 mg/kg (Rattus norvegicus [2]) [%]	also measured
COc1ccc2c(Cc3ccc(C)cc3)ccc(C(C)C(=O)O)c2c1 (stereo unspecified)	2.8	49	30	–
COc1ccc2c(Cc3ccc(Cl)cc3)c(CC(=O)O)ccc2c1	> 100	–	–	inhibition (Rattus norvegicus [4]): inactive
CS(=O)(=O)c1ccc(C2=C(c3ccccc3)C(=O)OC2)cc1 [ROFECOXIB]	–	–	41	–
CCc1ccc(Cc2ccc(C(C)C(=O)O)c3cc(OC)ccc23)cc1 (stereo unspecified)	> 100	32	–	–
CC(C(=O)O)c1ccc(Cc2ccc(Cl)cc2)c2ccc(S(C)(=O)=O)cc12 (stereo unspecified)	> 100	–	–	inhibition (Rattus norvegicus [1]): inactive
COc1ccc2c(Cc3cccc(Cl)c3)ccc(C(C)C(=O)O)c2c1 (stereo unspecified)	–	0	0	–
COc1ccc2c(c1)c(CC(=O)O)c(C)n2C(=O)c1ccc(Cl)cc1 [INDOMETHACIN]	–	–	–	inhibition in vivo at 10 mg/kg (Rattus norvegicus [10]): 100%
Cc1ccc(-c2cc(C(F)(F)F)nn2-c2ccc(S(N)(=O)=O)cc2)cc1 [CELECOXIB]	–	40	41	–
CSc1ccc2c(Cc3ccc(Cl)cc3)ccc(C(C)C(=O)O)c2c1 (stereo unspecified)	19.9	16	–	–
CCOc1ccc(Cc2ccc(C(C)C(=O)O)c3cc(OC)ccc23)cc1 (stereo unspecified)	> 100	52	27	–
